Consider one compound from patent US9790218B2, “Small molecule activators of calcium-activated chloride channels and methods of use” (The Regents of the University of California, priority 2011, dated 2017).

This test addresses T1, ENaC (Homo sapiens, UniProt P37088+P51168+P51170).
T1 construct: endogenous in cells; host or cells: primary human bronchial epithelial (HBE) cells at air-liquid interface
T1 sequence (P37088 1-669): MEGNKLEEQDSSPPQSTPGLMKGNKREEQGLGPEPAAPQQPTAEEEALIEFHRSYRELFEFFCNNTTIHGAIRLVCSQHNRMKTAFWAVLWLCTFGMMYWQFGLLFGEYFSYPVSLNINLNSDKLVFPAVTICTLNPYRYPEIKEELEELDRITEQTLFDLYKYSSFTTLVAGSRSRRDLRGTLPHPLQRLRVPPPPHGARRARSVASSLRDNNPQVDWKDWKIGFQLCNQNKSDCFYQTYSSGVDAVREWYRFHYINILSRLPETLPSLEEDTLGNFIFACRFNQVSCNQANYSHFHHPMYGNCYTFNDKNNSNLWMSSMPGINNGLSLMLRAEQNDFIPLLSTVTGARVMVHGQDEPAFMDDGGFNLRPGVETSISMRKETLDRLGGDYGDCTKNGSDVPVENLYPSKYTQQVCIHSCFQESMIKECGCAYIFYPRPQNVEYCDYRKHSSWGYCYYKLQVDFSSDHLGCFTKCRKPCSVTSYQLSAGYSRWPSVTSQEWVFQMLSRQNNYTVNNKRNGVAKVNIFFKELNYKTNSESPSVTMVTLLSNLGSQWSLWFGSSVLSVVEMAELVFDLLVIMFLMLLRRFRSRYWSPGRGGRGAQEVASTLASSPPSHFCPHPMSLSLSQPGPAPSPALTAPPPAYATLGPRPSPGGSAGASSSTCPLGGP
T1 sequence (P51168 1-640): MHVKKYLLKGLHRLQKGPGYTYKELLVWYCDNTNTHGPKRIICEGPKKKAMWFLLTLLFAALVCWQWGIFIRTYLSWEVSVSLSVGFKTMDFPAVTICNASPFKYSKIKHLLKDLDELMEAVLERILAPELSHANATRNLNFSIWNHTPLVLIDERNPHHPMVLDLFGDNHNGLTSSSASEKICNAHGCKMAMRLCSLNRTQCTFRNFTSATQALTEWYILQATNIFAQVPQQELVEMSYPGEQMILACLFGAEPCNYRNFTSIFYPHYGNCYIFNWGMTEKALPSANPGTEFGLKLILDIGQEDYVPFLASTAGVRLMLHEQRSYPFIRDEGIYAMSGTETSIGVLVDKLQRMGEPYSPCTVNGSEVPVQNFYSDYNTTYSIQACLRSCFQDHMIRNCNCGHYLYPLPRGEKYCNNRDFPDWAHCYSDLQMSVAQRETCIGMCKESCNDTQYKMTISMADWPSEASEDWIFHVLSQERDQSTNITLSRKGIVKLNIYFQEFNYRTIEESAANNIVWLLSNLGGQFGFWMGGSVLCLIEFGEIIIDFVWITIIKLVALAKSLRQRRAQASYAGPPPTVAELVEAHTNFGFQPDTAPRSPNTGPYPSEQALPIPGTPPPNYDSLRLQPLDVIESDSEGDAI
T1 sequence (P51170 1-649): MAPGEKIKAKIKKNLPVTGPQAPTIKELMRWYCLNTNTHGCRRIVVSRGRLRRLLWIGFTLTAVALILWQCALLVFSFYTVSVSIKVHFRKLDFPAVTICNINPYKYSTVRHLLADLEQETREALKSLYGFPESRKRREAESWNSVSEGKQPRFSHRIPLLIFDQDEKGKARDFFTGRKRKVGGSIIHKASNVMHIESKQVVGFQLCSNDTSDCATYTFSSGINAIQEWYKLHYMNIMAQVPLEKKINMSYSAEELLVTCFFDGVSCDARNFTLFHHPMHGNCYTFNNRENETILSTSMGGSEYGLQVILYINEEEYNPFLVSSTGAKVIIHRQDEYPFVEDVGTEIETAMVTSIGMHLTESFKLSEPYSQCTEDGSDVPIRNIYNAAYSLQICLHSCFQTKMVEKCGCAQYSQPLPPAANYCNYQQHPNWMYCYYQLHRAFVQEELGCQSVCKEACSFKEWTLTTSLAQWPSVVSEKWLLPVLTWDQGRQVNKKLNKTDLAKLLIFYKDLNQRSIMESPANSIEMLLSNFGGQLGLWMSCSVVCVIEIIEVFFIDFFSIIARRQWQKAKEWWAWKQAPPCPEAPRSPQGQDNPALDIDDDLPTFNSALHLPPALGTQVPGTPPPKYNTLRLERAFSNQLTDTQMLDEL
As to the kind of experiment: ENaC Na^+ conductance in HBE cells. In kind it is cell-based. Particulars: 10 μM, 5 min pretreatment; amiloride 10 μM. The method, then: FIG. 2A-E. Characterization of TMEM16A activators. FIG. 2A. Cytoplasmic calcium measured by Fluo-4 fluorescence. 100 μM ATP (gray line) or 10 μM of indicated TMEM16A activators were added at the arrow. FIG. 2B. Apical membrane current measured in TMEM16A-expressing FRT cells in the presence of a transepithelial chloride gradient and after basolateral membrane permeabilization. […] T16Ainh-A01 (10 μM) added where indicated. […] (right) Concentration-activation data summary (mean±S.E., n=4-6). FIG. 2C. Synergistic effect of Eact and Fact. (left and center) Representative current traces showing synergy. (right) Data summary of low doses of TMEM16A activation (mean±S.E., n=5, * P<0.05). FIG. 2D. Apical membrane current measured in FRT cells transfected with mouse TMEM16A or TMEM16B. FIG. 2E. Effect of Eact and Fact on CFTR and ENaC. (left) FRT cells expressing wild type CFTR and YFP indicator were pretreated for 5 min with 10 μM Eact and Fact. Forskolin (10 μM) added as indicated. […]
Snapwell inserts containing TMEM16A-expressing FRT, HBE, CF HBE or HTG cells were mounted in Ussing chambers (Physiologic Instruments, San Diego, Calif.). […] Apical membrane current (for FRT cells) and short-circuit current were measured using an EVC4000 Multi-Channel V/I Clamp (World Precision Instruments, Sarasota, Fla.) and recorded using PowerLab/8sp (AD Instruments, Castle Hill, Australia).

Consider `O=C(Nc1ccc(Br)cc1)c1cccc(-n2cnnn2)c1` [Fact, N-(4-bromophenyl)-3-(1H-tetrazol-1-yl)benzamide], for which the “effect on ENaC Na^+ conductance” value was “Neither Eact nor Fact affected”.
